Where “and” joins values, the source holds several entries; their conditions need not be identical. Equal entries are not always repeated. Where two headings read alike, the source gives them in different places. Starred links: 1 amine or outer side, 2 acyl side, 3 side chain; linkers in the order of their positions; H or OH if unused. Positions of bridges follow the written chain, without caps; N, C: chain ends. Non-standard residues stand in square brackets, D forms with d. Chains are numbered I, II in the order given. X1 = O=C(CCOCCOCCOCCN(CCOCCOCCOCCn1cc(CCC(=O)[*:2])nn1)CCOCCOCCOCCn1cc(CCC(=O)[*:3])nn1)[*:1]; TATA = O=C(CC[*:1])N1CN(C(=O)CC[*:2])CN(C(=O)CC[*:3])C1; d1Nal = N[C@H](Cc1cccc2ccccc12)C(=O)O; Hyp = O=C(O)[C@@H]1C[C@@H](O)CN1; hArg = N=C(N)NCCCC[C@H](N)C(=O)O; tBuAla = CC(C)(C)C[C@H](N)C(=O)O; Nle = CCCC[C@H](N)C(=O)O
Key:
rat Nectin-4 = target: T1, rat Nectin-4 (Rattus norvegicus, UniProt D3ZET1); test: SPR direct binding to biotinylated Nectin-4 extracellular domain, rat
T1 sequence (D3ZET1 31-509): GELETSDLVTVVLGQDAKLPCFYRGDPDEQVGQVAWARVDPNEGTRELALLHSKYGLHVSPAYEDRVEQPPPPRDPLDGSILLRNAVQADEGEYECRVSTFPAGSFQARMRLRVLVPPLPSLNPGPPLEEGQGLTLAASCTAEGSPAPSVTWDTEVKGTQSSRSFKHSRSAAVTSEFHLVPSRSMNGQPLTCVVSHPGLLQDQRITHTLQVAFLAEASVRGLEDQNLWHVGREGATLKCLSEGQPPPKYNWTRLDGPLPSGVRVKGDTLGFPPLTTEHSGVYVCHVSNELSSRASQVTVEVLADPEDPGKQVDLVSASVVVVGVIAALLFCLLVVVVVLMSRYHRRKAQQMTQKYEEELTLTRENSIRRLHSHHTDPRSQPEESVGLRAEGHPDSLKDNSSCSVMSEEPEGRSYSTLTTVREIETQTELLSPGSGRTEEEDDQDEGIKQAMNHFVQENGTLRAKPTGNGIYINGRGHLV
Text: (§1) The binding of BCY11863 to its primary target Nectin-4 and CD137 was characterized using surface plasmon resonance (SPR).

human Nectin-4 = target: T2, human Nectin-4 (Homo sapiens, UniProt Q96NY8); test: SPR direct binding to biotinylated Nectin-4 extracellular domain, human
T2 sequence (Q96NY8 32-349 limits assumed): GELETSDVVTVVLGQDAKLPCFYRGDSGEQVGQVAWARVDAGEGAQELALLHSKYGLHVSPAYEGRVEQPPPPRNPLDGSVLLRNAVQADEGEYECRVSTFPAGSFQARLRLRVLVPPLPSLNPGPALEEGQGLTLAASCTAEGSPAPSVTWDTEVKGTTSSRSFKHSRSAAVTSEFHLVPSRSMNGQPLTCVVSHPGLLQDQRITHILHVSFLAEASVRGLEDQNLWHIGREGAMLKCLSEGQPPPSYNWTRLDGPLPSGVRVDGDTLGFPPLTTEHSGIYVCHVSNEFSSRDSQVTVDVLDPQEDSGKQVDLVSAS
Text: as §1

[1] = test system: Nectin-1, Nectin-2, Nectin-3, Nectin-like-1, Nectin-like-2, Nectin-like-3, Nectin-like-4, Nectin-like-5; test: Nectin-4 paralogue screening by SPR; format: binding; details: biotinylated targets on streptavidin surface
Experimental: Nectin-4 Paralogue screening: Binding of BCY11863 was assessed using SPR against Nectin-1 (2880-N1, R&D Systems), Nectin-2 (2229-N2, R&D Systems), Nectin-3 (3064-N3, R&D Systems), Nectin-like-1 (3678-S4-050, R&D Systems), Nectin-like-2 (3519-S4-050, R&D Systems), Nectin-like-3 (4290-S4-050, R&D Systems), Nectin-like-4 (4164-S4, R&D Systems) and Nectin-like-5 (2530-CD-050, R&D Systems) by labelling them with biotin and immobilizing them on a streptavidin surface.

[2] = Pharmacokinetics in cynomolgus monkey; format: in vivo; details: plasma
Experimental: Serial bleeding (about 1.2 ml blood/time point) was performed from a peripheral vessel from restrained, non-sedated animals at each time point into a commercially available tube containing Potassium (K2) EDTA*2H2O (0.85-1.15 mg) on wet ice and processed for plasma. Samples were centrifuged (3,000×g for 10 minutes at 2 to 8° C.) immediately after collection. 0.1 mL plasma was transferred into labelled polypropylene micro-centrifuge tubes. 5-fold of the precipitant including internal standard 100 ng/mL Labetalol & 100 ng/mL dexamethasone & 100 ng/mL tolbutamide & 100 ng/mL Verapamil & 100 ng/mL Glyburide & 100 ng/mL Celecoxib in MeOH was immediately added into the plasma, mixed well and centrifuged at 12,000 rpm for 10 minutes at 2 to 8° C. Samples of supernatant were transferred into the pre-labeled polypropylene microcentrifuge tubes, and frozen over dry ice. The samples were stored at −60° C. or below until LC-MS/MS analysis. An aliquot of 40 μL calibration standard, quality control, single blank and double blank samples were added to the 1.5 mL tube. Each sample (except the double blank) was quenched with 200 μL IS1 respectively (double blank sample was quenched with 200 μL MeOH with 0.5% tritonX-100), and then the mixture was vortex-mixed well (at least 15 s) with vortexer and centrifuged for 15 min at 12000 g, 4° C. A 10 μL supernatant was injected for LC-MS/MS analysis using an Orbitrap Q Exactive in positive ion mode to determine the concentrations of analyte. Plasma concentration versus time data were analyzed by non-compartmental approaches using the Phoenix WinNonlin 6.3 software program. C0, CI, Vdss, T½, AUC(0-last), AUC(0-inf), MRT(0-last), MRT(0-inf) and graphs of plasma concentration versus time profile were reported.

mouse Nectin-4 = target: T3, mouse Nectin-4 (Mus musculus, UniProt Q8R007); test: SPR direct binding to biotinylated Nectin-4 extracellular domain, mouse
T3 sequence (Q8R007 31-347 limits assumed): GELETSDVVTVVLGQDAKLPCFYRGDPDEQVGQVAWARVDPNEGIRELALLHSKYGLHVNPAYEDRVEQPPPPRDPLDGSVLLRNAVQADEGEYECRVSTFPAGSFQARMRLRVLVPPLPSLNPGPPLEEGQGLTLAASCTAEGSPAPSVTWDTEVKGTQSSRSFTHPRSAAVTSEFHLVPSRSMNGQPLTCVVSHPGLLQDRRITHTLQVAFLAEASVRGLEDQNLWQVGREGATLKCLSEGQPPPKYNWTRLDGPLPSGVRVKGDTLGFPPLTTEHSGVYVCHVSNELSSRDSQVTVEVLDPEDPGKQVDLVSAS
Text: as §1

[3] = KD, biotinylated ECD captured on streptavidin chip

| Molecule | Kd (rat Nectin-4; [3]) | Kd (rat Nectin-4; SPR KD Rat (25° C.), Direct Binding, biotinylated Nectin-4 extracellular domain, 25° C.) | Kd (human Nectin-4; [3]) | Kd (human Nectin-4; SPR KD Human (25° C.), Direct Binding, biotinylated Nectin-4 extracellular domain, 25° C.) | Kd (human Nectin-4; SPR KD Human (37° C.), Direct Binding, biotinylated Nectin-4 extracellular domain, 37° C.) | binding to Nectin-4 paralogues: concentration up to which no binding was shown [1] | Vd ([2]; 0.93 mg/kg IV infusion (30 min), read-out: Vdss) | clearance ([2]; 0.97 mg/kg IV infusion (15 min), read-out: Clp) | half-life ([2]; 0.97 mg/kg IV infusion (15 min), read-out: T1/2 (converted)) | Vd ([2]; 0.97 mg/kg IV infusion (15 min), read-out: Vdss) | Vd ([2]; 1 mg/kg IV infusion, n=2, read-out: volume of distribution at steady state (Vdss)) | clearance ([2]; 9.4 mg/kg IV infusion (15 min), read-out: Clp) | half-life ([2]; 9.4 mg/kg IV infusion (15 min), read-out: T1/2 (converted)) | Vd ([2]; 9.4 mg/kg IV infusion (15 min), read-out: Vdss) | Kd (mouse Nectin-4; [3]) | Kd (mouse Nectin-4; SPR KD Mouse (25° C.), Direct Binding, biotinylated Nectin-4 extracellular domain, 25° C.) | clearance ([2]; 9.2 mg/kg IV infusion (15 min), read-out: clearance) | Vd ([2]; 9.2 mg/kg IV infusion (15 min), read-out: volume of distribution at steady state (Vdss)) | half-life ([2]; IV infusion (15 min), 9.2 mg/kg, read-out: T1/2 (converted)) | half-life ([2]; IV infusion (15 min), dose 9.2 mg/kg, 8.9 mg/kg, read-out: terminal half life (converted)) |
| --- | --- | --- | --- | --- | --- | --- | --- | --- | --- | --- | --- | --- | --- | --- | --- | --- | --- | --- | --- | --- |
| CCCC[C@@H]1NC(=O)[C@H](Cc2ccc(O)cc2)NC(=O)[C@@H]2CCCN2C(=O)[C@H](CC(=O)O)NC(=O)[C@H](C)NC(=O)[C@H](Cc2ccccc2)NC(=O)[C@@H]2CSCCC(=O)N3CN(CN(C3)C(=O)CCSC[C@@H](C(=O)N[C@@H](C)C(N)=O)NC1=O)C(=O)CCSC[C@H](NC(C)=O)C(=O)N[C@@H](CC(C)(C)C)C(=O)N1CCC[C@H]1C(=O)N[C@@H](CCC(=O)O)C(=O)N[C@H](CCCCNC(=O)CCc1cn(CCOCCOCCOCCN(CCOCCOCCOCCC(=O)N[C@H]3CSCCC(=O)N4CN5CN(C4)C(=O)CCSC[C@H](NC(=O)[C@@H](CC(=O)O)NC(=O)[C@H](Cc4cccc6ccccc46)NC(=O)[C@@H]4CCCN4C3=O)C(=O)N[C@@H](CCSC)C(=O)N[C@@H](CCCCNC(=N)N)C(=O)N[C@@H](CC(=O)O)C(=O)N[C@@H](Cc3c[nH]c4ccccc34)C(=O)N[C@@H](CO)C(=O)N[C@@H]([C@@H](C)O)C(=O)N3CCC[C@H]3C(=O)N3C[C@H](O)C[C@H]3C(=O)N[C@@H](Cc3c[nH]c4ccccc34)C(=O)N[C@H](C(N)=O)CSCCC5=O)CCOCCOCCOCCn3cc(CCC(=O)NCCCC[C@H]4NC(=O)[C@H](CCC(=O)O)NC(=O)[C@@H]5CCCN5C(=O)[C@H](CC(C)(C)C)NC(=O)[C@@H](NC(C)=O)CSCCC(=O)N5CN6CN(C5)C(=O)CCSC[C@H](NC(=O)[C@H](Cc5ccc(O)cc5)NC(=O)[C@@H]5CCCN5C4=O)C(=O)N[C@@H](Cc4ccccc4)C(=O)N[C@@H](C)C(=O)N[C@@H](CC(=O)O)C(=O)N4CCC[C@H]4C(=O)N[C@@H](Cc4ccc(O)cc4)C(=O)N[C@@H](CCCC)C(=O)N[C@H](C(=O)N[C@@H](C)C(N)=O)CSCCC6=O)nn3)nn1)C(=O)N1CCC[C@H]1C(=O)N[C@@H](Cc1ccc(O)cc1)C(=O)N2 [BCY11863] | 5 to 27 nM | 15 ± 1 nM | 5 to 27 nM and 4.1 nM | 5 ± 2.1 nM | 5.2 ± 1.1 nM | > 5000 nM | 0.62 L/kg | 4.8 mL/min/kg | 270 min | 0.91 L/kg | 0.62 L/kg | 3.9 mL/min/kg | 534 min | 1.1 L/kg | 5 to 27 nM | 4.6 ± 2.1 nM | – | – | – | – |
| I: A[hArg]DC[Hyp]LVNPLCLEP[d1Nal]WTC-NH2 / II: Ac-C[tBuAla]PE[dK]PYCFADPY[Nle]CA-NH2 / III: Ac-C[tBuAla]PE[dK]PYCFADPY[Nle]CA-NH2 (linker I:4-I:11-I:18, II:1-II:8-II:15, III:1-III:8-III:15 via TATA; linker I:N-II:5-III:5 via X1) [BCY13272] | – | – | – | – | – | – | – | – | – | – | – | – | – | – | – | – | 4.1 mL/min/kg | 0.82 L/kg | 534 min | 534 min |

Source: patent US20230129258A1, “HETEROTANDEM BICYCLIC PEPTIDE COMPLEXES” (BicycleTx Limited, priority 2019, published 2023)
